Measured values as given in patent US20230399358A1, “IMMUNOGLOBULIN PURIFICATION PEPTIDES AND THEIR USE” (North Carolina State University, priority 2019, published 2023).
Non-standard residues stand in square brackets, D forms with d. No end group written: not given here. Cit = NC(=O)NCCC[C@H](N)C(=O)O; Nle = CCCC[C@H](N)C(=O)O

Molecular target: human polyclonal IgG (human)
Assay: batch incubation of peptide-Toyopearl resin with human IgG, Bradford of unbound IgG; mg IgG bound relative to WQRHGI
Settings: not given
Molecule WNRHGI [WNRHGI (SEQ ID NO:12)] has a % Binding of 77.4%.
Molecule WQRHI [WQRHI (SEQ ID NO:33)] has a % Binding of 86.9%.
In the case of WQRHGL [WQRHGL (SEQ ID NO:9)], the % Binding is reported as 99.1%.
In the case of WQ[Cit]HGI [WQ(Cit)HGI (SEQ ID NO:27)], the % Binding is reported as 0.95%.
WQRHAI [WQRHAI (SEQ ID NO:11)] showed a % Binding of 95.4%.
For WQRAGI [WQRAGI (SEQ ID NO:28)], the % Binding was 62.8%.
For FQRHGI [FQRHGI (SEQ ID NO:29)], the % Binding was 37.2%.
In the case of WQRHGV [WQRHGV (SEQ ID NO:10)], the % Binding is reported as 96%.

Tested on: human polyclonal IgG in CHO-S cell culture fluid
Assay: Static purification of IgG from CHO cell culture supernatant on peptide-Toyopearl resins, SDS-PAGE densitometry
Settings: Gel A, lane FT (flow-through)
Procedure: (§1) Measurement of IgG binding by peptide-based chromatographic adsorbents: For initial studies, 35 mg of MWRGWQ (SEQ ID NO:2)-Toyopearl, RHLGWF (SEQ ID NO:3)-Toyopearl, WQRHGI (SEQ ID NO:1)-Toyopearl, GWLHQR (SEQ ID NO:4)-Toyopearl, and HWRGWV (SEQ ID NO:18)-Toyopearl (control) resins were equilibrated in PBS pH 7.4, reaching a swollen volume of 0.1 mL, and subsequently incubated with 1 mg/mL IgG in 0.205 mg/mL CHO cell culture supernatant for 30 minutes. The resins were subsequently washed several times with PBS to remove non-specifically bound proteins. Elution was performed with 100 mM glycine buffer pH 2.5. Flowthrough and elution fractions were collected and analyzed by SDS PAGE under reducing conditions. The resulting gels were stained with Coomassie staining. Further, 25 mg of the adsorbents MWRGWQ (SEQ ID NO:2)-Toyopearl, NIFRGWQ (SEQ ID NO:21)-Toyopearl, MWRAWQ (SEQ ID NO:5)-Toyopearl, MWRGFQ (SEQ ID NO:7)-Toyopearl, MWRGWN (SEQ ID NO:22)-Toyopearl, (NorL) WRGWQ (SEQ ID NO:23)-Toyopearl, MGRGWQ (SEQ ID NO:24)-Toyopearl, MWRWQ (SEQ ID NO:6)-Toyopearl, MWRGGQ (SEQ ID NO:26)-Toyopearl, GWRGWQ (SEQ ID NO:8)-Toyopearl, WQRHGI (SEQ ID NO:1)-Toyopearl, WNRHGI (SEQ ID NO:12)-Toyopearl, WQRAGI (SEQ ID NO:28)-Toyopearl, WQRHAI (SEQ ID NO:11)-Toyopearl, WQRHGL (SEQ ID NO:9)-Toyopearl, FQRHGI (SEQ ID NO:29)-Toyopearl, and WQRHGV (SEQ ID NO:10)-Toyopearl resins were equilibrated in PBS pH 7.4, reaching a swollen volume of 0.1 mL, and subsequently incubated with 1 mg/mL IgG in PBS at pH 7.4 for 30 minutes. The amount of unbound IgG in the supernatant samples was quantified by Bradford assay and utilized to determine the IgG binding % by the peptide variants.
Characterization of IgG-binding peptide variants WQRHGI (SEQ ID NO:1), MWRGWQ (SEQ ID NO:2), RHLGWF (SEQ ID NO:3), and GWLHQR (SEQ ID NO:4) in competitive conditions: The four selected sequence variants were tested for their ability to purify human IgG from a CHO cell culture supernatant and found largely to mirror their in silico predictions. Even though they seemed to underperform in silico, RHLGWF (SEQ ID NO:3) and GWLHQR (SEQ ID NO:4) were tested alongside WQRHGI (SEQ ID NO:1) and MWRGWQ (SEQ ID NO:2) in these conditions in order to confirm their ability to bind IgG and examine their selectivity as predicted in silico. The feedstock was prepared by spiking human polyclonal IgG into a clarified null CHO-S cell culture fluid to obtain an IgG concentration of 1 mg/mL and a CHO HCP concentration of 0.205 mg/mL. An aliquot of 500 μL was loaded onto each peptide adsorbent in static conditions for 30 min. Following a washing step with PBS to remove loosely bound proteins, a first elution step was conducted using 0.1 M glycine buffer pH 2.5 to remove all bound proteins. Flow through fractions and pH 2.5 elution fractions were loaded neat and analyzed by SDS PAGE (FIGS. 6A-6B). The values of IgG purity in the eluted fractions were determined by densitometric analysis of the corresponding lanes on the gels, and are reported in Table 9.
In the case of RHLGWF, the “% Purity (IgG over total proteins)” value is reported as 100.00%.

Same assay, conditions: Gel A, lane R (pH 2.5)
In the case of RHLGWF, the “% Purity (IgG over total eluted proteins)” value is reported as 52.28%.

Same assay, conditions: competitive conditions, CHO cell culture supernatant
In the case of RHLGWF, the IgG yield is reported as “high IgG yield”.

Same assay, conditions: competitive conditions, in vitro
In the case of RHLGWF, the “selectivity for IgG over HCPs” value is reported as “non-selective”.

Molecular target: human polyclonal IgG (human)
Assay: batch incubation of peptide-Toyopearl resin with human IgG, Bradford of unbound IgG; mg IgG bound relative to MWRGWQ
Settings: not given
In the case of MFRGWQ [MFRGWQ (SEQ ID NO:21)], the % Binding is reported as 56.8%.
For GWRGWQ [GWRGWQ (SEQ ID NO:8)], the % Binding was 78.4%.
For MWRGGQ [MWRGGQ (SEQ ID NO:26)], the % Binding was 26%.
In the case of MWRGWN [MWRGWN (SEQ ID NO:22)], the % Binding is reported as 18.9%.
With MW[Cit]GWQ [MW(Cit)GWQ (SEQ ID NO:25)] the % Binding was 0.48%.
For [Nle]WRGWQ [(NorL)WRGWQ (SEQ ID NO:23)], the % Binding was 74.7%.
Work on MWRAWQ [MWRAWQ (SEQ ID NO:5)] yielded a % Binding of 97%.
In the case of MWRWQ [MWRWQ (SEQ ID NO:6)], the % Binding is reported as 91.5%.
With MWRGFQ [MWRGFQ (SEQ ID NO:7)] the % Binding was 89.2%.

Tested on: host cell protein (HCP)
Assay: not given
Settings: literature value; cited from earlier work
For Ac-HW[Cit]GWV, the “HCP LRV” value is given as 2.07.

Tested on: human IgG
Assay: not given
Assay type: binding
Settings: peptide on Toyopearl AF-amino-650M, 30 min, room temperature
Procedure: as §1
A limited library of residue-by-residue changes confirmed the importance of each residue in peptides WQRHGI (SEQ ID NO:1) and MWRGWQ (SEQ ID NO:2) in reducing the binding energy between the peptide and the IgG target. […] This was accomplished by designing and constructing an ensemble of 20 variants of peptides WQRHGI (SEQ ID NO:1) and MWRGWQ (SEQ ID NO:2). Selected residues in positions 1-6 were mutated. The peptide variants were synthesized directly on Toyopearl AF-amino-650M resin via Fmoc/tBu chemistry. The resulting adsorbents were incubated with a solution of human IgG at 2 mg/mL at a ratio of 1 mL of resin per 3.5 mL of solution for 30 min at room temperature. The residual concentration of IgG in solution was determined by Bradford concentration assay of the supernatants and utilized to calculate the amounts of bound IgG per volume of resin; Table 7 reports the % binding, defined as mg IgG bound by variant/mg IgG bound by original sequence (either WQRHGI (SEQ ID NO:1) or MWRGWQ (SEQ ID NO:2))×100%, of each sequence variant.
In the case of “(NorL)WRGWQ ([Nle]WRGWQ) [ΛWRGWQ, Λ represents Nor-Leucine]”, the “% Binding (mg IgG bound by variant/mg IgG bound by original sequence × 100%)” value is reported as 74.66%.
In the case of FQRHGI, the “% Binding (mg IgG bound by variant/mg IgG bound by original sequence × 100%)” value is reported as 37.18%.
In the case of GWRGWQ, the “% Binding (mg IgG bound by variant/mg IgG bound by original sequence × 100%)” value is reported as 78.37%.
With MFRGWQ the “% Binding (mg IgG bound by variant/mg IgG bound by original sequence × 100%)” value was 56.75%.
In the case of MGRGWQ, the “% Binding (mg IgG bound by variant/mg IgG bound by original sequence × 100%)” value is reported as “Undetected”.
In the case of MW(Cit)GWQ (MW[Cit]GWQ) [MWχGWQ], the “% Binding (mg IgG bound by variant/mg IgG bound by original sequence × 100%)” value is reported as 0.48%.
In the case of MWRAWQ, the “% Binding (mg IgG bound by variant/mg IgG bound by original sequence × 100%)” value is reported as 96.96%.
For MWRGFQ [MWRGEQ], the “% Binding (mg IgG bound by variant/mg IgG bound by original sequence × 100%)” value was 89.19%.
In the case of MWRGGQ, the “% Binding (mg IgG bound by variant/mg IgG bound by original sequence × 100%)” value is reported as 26.00%.
In the case of MWRGWN, the “% Binding (mg IgG bound by variant/mg IgG bound by original sequence × 100%)” value is reported as 18.90%.
With MWRWQ the “% Binding (mg IgG bound by variant/mg IgG bound by original sequence × 100%)” value was 91.55%.
In the case of WNRHGI, the “% Binding (mg IgG bound by variant/mg IgG bound by original sequence × 100%)” value is reported as 77.43%.
For WQ(Cit)HGI (WQ[Cit]HGI) [WQχHGI], the “% Binding (mg IgG bound by variant/mg IgG bound by original sequence × 100%)” value was 0.95%.
In the case of WQRAGI, the “% Binding (mg IgG bound by variant/mg IgG bound by original sequence × 100%)” value is reported as 62.80%.
With WQRHAI the “% Binding (mg IgG bound by variant/mg IgG bound by original sequence × 100%)” value was 95.43%.
With WQRHGL the “% Binding (mg IgG bound by variant/mg IgG bound by original sequence × 100%)” value was 99.09%.
With WQRHGV the “% Binding (mg IgG bound by variant/mg IgG bound by original sequence × 100%)” value was 96.04%.
For WQRHI, the “% Binding (mg IgG bound by variant/mg IgG bound by original sequence × 100%)” value was 86.89%.
